“Also recorded” adds a separate entry of the source.
Tests used:
[1] = tested on: human tumor-infiltrating lymphocytes (TIL); test: Flow cytometry immunophenotyping of expanded TIL (lineage and memory markers); assay type: cell-based; conditions: for CD4 TCM CD62L+ CCR7+, percentage of total TIL cell number on day 28: TIL1 population, alone or with IL-2
Procedure: The plates were placed in a humidified 37° C. incubator with 5% CO2. Half of the medium was replaced every two days after culture initiation. […] Subsequently, half the media was replaced thrice weekly, cultures were split to maintain a cell density of 1×10^6 cells/mL. […] Mitochondrial markers including, Mitotracker, Mitoprobe, and 2-NBDG may also be used to assess differentiation and/or activation of cells.
(§1) T lymphocytes were defined based on lineage and differentiation marker expression according to the developmental model (Restifo, Blood, 124:476-477, 2014), as shown in Table 4.

[2] = tested on: TIL from ovarian, colon and breast cancer tissues; test: Phenotype of TIL expanded 14 days in GREX 10 flasks; assay type: cell-based, human; conditions: GREX 10 format, versus IL-2 alone (FIG. 26)
Procedure: TIL directly derived from fresh ovarian, colon and breast cancer tissues (fresh, n=7) obtained after 14 days' ex vivo culture of cancer tissue fragments were analyzed by flow cytometry.
TIL directly derived from fresh ovarian, colon and breast cancer tissues (fresh, n=7) obtained after 14 days' ex vivo culture of cancer tissue fragments were analyzed by flow cytometry. FIG. 26 provides FACS data showing percentages of central memory (CD45RO+CD8+) and effector memory (CD45RO+CD8-) phenotype among CD8+CD45RO+, respectively. FACS results were expressed as the mean SEM.

[3] = tested on: human T cells from donor PBMC; test: Flow cytometry immunophenotyping of T cells expanded from donor PBMC; assay type: cell-based
Source text: At day eleven, cells were pooled and counted, and immunophenotyped at day 11 by flow cytometry by measuring expression of lineage (CD4, CD8) and differentiation (including CD45RA, CD45RO, CD95, CCR7, CD62L, TCF1, PD-1, TIM3, LAG3) markers.
as §1

[4] = Compound stability in complete RPMI with 10% human serum (mass spectrometry); assay type: physicochemical
Procedure: To assess compound stability, at day 1, 1 μM compound 103 or DMSO was added to complete RMPI containing 10% human serum and stored at either 4° C., 22° C. or 37° C. over an 11 day time period. Concentration of compound 103 was assessed at each indicated timepoint and storage temperature by mass spectrometry. Compound 103 was stable for at least 11 days in RPMI medium (FIG. 33).

[5] = tested on: human tumor-infiltrating lymphocytes (TIL); test: Rapid Expansion Protocol (REP) of TIL; assay type: cell-based; conditions: alone or with IL-2 6000 IU/mL
Procedure: PBMC, OKT3 antibody (30 ng/mL), complete medium (“CM”), AIM V media (GIBCO/BRL), and TIL effector cells were combined, mixed, and aliquoted to a 75 cm^2 tissue culture flask. Flasks were incubated upright at 37° C. in 5% CO2. […] About 14 days after initiation of the REP, cells were harvested and cryopreserved for future experimental analysis.

E.G7-OVA tumor cells = test: Tumor re-challenge of long term survivors 149 days after OT-1 transfer; assay type: in vivo, mouse
Source text: To determine whether OT-1 cells are capable of long-term tumor protection, the long term survivors of the above experiment (FIG. 12) were re-challenged with a lethal dose of E.G7-OVA tumor cells 149 days after the initial adoptive transfer of the in vitro expanded OT-1 cells. Re-challenge induced OT-1 cell expansion at the site engrafted with E.G7-OVA tumor cells expressing ovalbumin antigen, thereby effectively controlling tumor growth (FIG. 21).

E.G7-OVA tumors = test: Adoptive transfer of ex vivo expanded OT-1 cells into E.G7-OVA tumor-bearing mice: tumor volume and survival; assay type: in vivo, mouse
Procedure: Dead cells were removed (Miltenyi Biotec Cat #130-090-101) prior to transfer in vivo to monitor their trafficking and function in an EG.7 lymphoma model, which expresses the OVA antigen. Approximately five million cells per mouse were transferred to mice having an average tumor burden of about 70 mm^3. Following in vivo transfer of the OT-1 cells, antitumor response was monitored over time and the quality and quantity of immune response were assessed at various time points.
(§2) The expanded OT-1 cells were characterized by FACS analysis and transferred into E.G7-OVA mice, which bear ovalbumin (OVA) expressing tumors. Following in vivo transfer of expanded OT-1 cells, antitumor response was monitored over time and the quality and quantity of immune response was assessed at various time points. Analysis included FACS analysis on blood, tumor, and spleen samples. Analysis also included re-stimulation of splenocytes with OVA Class I peptide to evaluate the multifunctionality of the antigen-specific effector T cells.
On Day 0, E.G7-OVA cells were implanted into each mouse. On Day 5, approximately 5×10^6 in vitro expanded OT-1 cells were injected into the tail of each mouse. On Day 9, blood was analyzed by FACS. On Day 14, blood, tumor and spleen samples were analyzed by FACS. On Day 27, blood was analyzed by FACS. Tumor volume was measured approximately every five days through about 50 days post implant.

OT-1 cells = test: Re-stimulation of harvested splenocytes with OVA Class I peptide; assay type: cell-based, mouse
Procedure: as §2
Expanded OT-1 cells were assessed from splenocytes 11 days after transfer. Harvested splenocytes were re-stimulated with OVA Class I peptide for 72 hours.
Expanded OT-1 cells were assessed from splenocytes 11 days after transfer. Harvested splenocytes were re-stimulated with OVA Class I peptide for 4 hours.
Expanded OT-1 cells were assessed from splenocytes 11 days after transfer. Harvested splenocytes were re-stimulated with OVA Class I peptide for 24 hours.

[6] = second study, anti-CD3 stimulated OT-1 cells

## C[C@@H]1CN(Cc2cc3c(c(C(F)(F)F)c2)CN(c2cccc(C4(Cc5nncn5C)COC4)c2)C3=O)CCC1(F)F [Compound 103]
[1]; 0.1 μM Cbl-i
  CD4 TCM CD62L+ CCR7+, percentage of total TIL cell number on day 28: 2.8%
[1]; 1.0 μM Cbl-i
  CD4 TCM CD62L+ CCR7+, percentage of total TIL cell number on day 28: 8.0%
[1]; Table 5
  Phenotype of human TIL expanded ex vivo: TCM (CD45RO+, CD95+, CCR7+, CD62L+) or TEM (CD45RO+, CD95+, CCR7−, CD62L−) phenotype
[1]; tumor sample, FIG. 7
  Expansion of CD8+ versus CD4+ T lymphocytes in TIL culture: selectively expand CD8+ T lymphocytes
[2]
  CD8+ central memory T cells: increases CD8+ central memory T cells
[3]; 1 μM Cbl inhibitor alone, versus IL-2 alone
  Percentage of CD8+ cells in culture: higher percentages of CD8+ cells than those cultured in IL-2 alone
[3]; donor PBMC, Table 7
  Phenotype of human T cells expanded ex vivo: TSCM (CD45RA+, CD95+, CCR7+, CD62L+), TCM (CD45RO+, CD95+, CCR7+, CD62L+) or TEM (CD45RO+, CD95+, CCR7−, CD62L−) phenotype
[3]; donor PBMC, 0.1 μM Cbl-i, alone or with IL-2
  CD4 TsCM, percentage of total cell number on day 11: 12%
[3]; donor PBMCs, FIGS. 2A and 2B
  Selective expansion of CD8+ T lymphocytes: selectively expand CD8+ T lymphocytes from donor PBMCs
[4]; 1 μM, complete RPMI with 10% human serum, 4° C., 22° C. or 37° C. (FIG. 33)
  Stability in RPMI medium: at least 11 days
[4]; 4° C.-37° C., FIG. 33
  Stability at multiple temperatures (figure legend): stable at multiple temperatures (4° C.-37° C.) over an 11 day period
[5]; TIL1 (ovary), 0.1 μM Cbl-i
  Percentage of total cell number relative to IL-2 alone on day 42 (Pre-REP and REP): 40%
[5]; TIL1 (ovary), 1.0 μM Cbl-i
  Percentage of total cell number relative to IL-2 alone on day 42 (Pre-REP and REP): 42%
[5]; TIL1 (ovary), 10 μM Cbl-i
  Percentage of total cell number relative to IL-2 alone on day 42 (Pre-REP and REP): 32%
[5]; TIL3 (ovary), 1.0 μM Cbl-i
  Percentage of total cell number relative to IL-2 alone on day 42 (Pre-REP and REP): 150%
[5]; TIL4 (colon), 0.1 μM Cbl-i
  Percentage of total cell number relative to IL-2 alone on day 42 (Pre-REP and REP): 80%
[5]; TIL4 (colon), 1.0 μM Cbl-i
  Percentage of total cell number relative to IL-2 alone on day 42 (Pre-REP and REP): 80%
[5]; TIL6 (ovary), 0.1 μM Cbl-i
  Percentage of total cell number relative to IL-2 alone on day 42 (Pre-REP and REP): 51%
[5]; TIL6 (ovary), 1.0 μM Cbl-i
  Percentage of total cell number relative to IL-2 alone on day 42 (Pre-REP and REP): 63%
[5]; TIL6 (ovary), 10 μM Cbl-i
  Percentage of total cell number relative to IL-2 alone on day 42 (Pre-REP and REP): 49%
E.G7-OVA tumor cells; OT-1 cells expanded in vitro
  Protection from tumor re-challenge (FIG. 21): potent memory cells capable of protecting mice from tumor re-challenge
E.G7-OVA tumor cells; before re-challenge (FIG. 22A)
  Number of OT-1 cells in blood 149 days after initial adoptive transfer: higher number in the blood
E.G7-OVA tumor cells; day 5 after tumor re-challenge, versus IL-2 alone (FIG. 22B)
  Recall response, number of OT-1 cells per ml of blood: significantly more rapid recall response
E.G7-OVA tumors; 3-day ex vivo exposure, alone or in combination with IL-2
  Anti-tumor phenotype of transferred T cells: conferred a lasting anti-tumor phenotype for over a month
E.G7-OVA tumors; expansion at 1 μM, IL-2 300 IU, E.G7-OVA mice
  Potency of expanded CD8+ OT-1 cells (tumor volume, FIGS. 11A and 11B): at least as potent as CD8+OT-1 cells expanded with IL-2
E.G7-OVA tumors; mice subcutaneously implanted with E.G7-OVA cells
  Rejection of established tumors by expanded OT-1 cells (FIG. 9): potent effectors capable of rejecting established tumors
E.G7-OVA tumors; [6]
  Long-term survival (FIG. 12B): improved long-term survival
  Potency of expanded OT-1 cells, inhibition of tumor growth (FIG. 12A): increased potency compared to IL-2 expanded cells; also recorded: increased potency compared to TL-2 expanded cells
OT-1 cells; OVA Class I peptide 4 hours, versus IL-2 alone (FIG. 16C)
  Exhaustion markers (PD1 and TIM3) in multifunctional cells: lower level of expression of exhaustion markers (PD1 and TIM3)
OT-1 cells; OVA Class I peptide 4 hours, versus IL-2 alone (FIGS. 16A, 16B)
  Multifunctionality (IFN-gamma and TNF-alpha double positive cells): comparable multifunctionality
OT-1 cells; OVA Class I peptide 24 hours (FIG. 17B)
  IL-2 production upon restimulation: increased IL-2 production upon restimulation
OT-1 cells; splenocytes 11 days after transfer, OVA Class I peptide 72 hours (FIG. 15)
  Ability to proliferate in response to peptide restimulation: superior intrinsic ability to proliferate in response to peptide restimulation

Reference: patent US12594263B2, “CBL inhibitors and compositions for expansion of immune cells” (Nurix Therapeutics, Inc., priority 2019, dated 2026)
